Data taken from patent US20210219549A1 (priority 2018, published 2021).
Read-outs that look alike come from different tables or passages of the source.

How the values were obtained:
[1] = test system: Xylella fastidiosa strain Temecula-1 (PDT); test: microbe, parasite or virus in culture; format: cell-based; conditions: for inhibition at 25 µM / inhibition at 50 µM: Xylella fastidiosa; for inhibition at 50 µM: 48 h, read-out: growth inhibition of Temecula1, 50 μM, 48 hrs, relative to untreated control; for inhibition at 25 µM / inhibition: 25 uM
[2] = test system: X. fastidiosa Temecula 1 in V. vinifera cv. Carignane; format: in vivo, Vitis vinifera; conditions: for leaves with PD symptoms: at the end of 3 months, untreated nearly 100%; for progression of PD symptoms: in vivo
[3] = test system: grapevine leaves (V. vinifera cv. Carignane); test: Leaf disc phytotoxicity, chlorophyll loss
grapevines = test: Visible phytotoxicity in greenhouse after foliar spray or soil drench
[4] = test system: grapevine leaves (V. vinifera cv. Carignane)
[5] = test system: Ca. Liberibacter asiaticus (Las); format: in vivo, C. sinensis; conditions: soil drench 1 g/tree, Hamlins, as early as 20 days post treatment
[6] = test system: Xf PD strain in V. vinifera grapevines; set-up: species or system Vitis vinifera; conditions: in vivo
[7] = test system: Ca. Liberibacter asiaticus (Las); format: in vivo, C. paradisi; conditions: soil drench 15 g/tree, grapefruits, as early as 20 days post treatment

SMILES: CC(Cc1ccc(O)c(O)c1)C(C)Cc1ccc(O)c(O)c1 (centres unmarked) [4,4′-(2,3 dimethyltetramethylene) dipyrocatechol]
- inhibition at 25 µM [1]: 100%
- inhibition at 50 µM [1]: > 90%

SMILES: COc1ccc2[nH]c3c(C)c4ccncc4c(C)c3c2c1 [9-methoxyellipticine]
- inhibition [1]: 100%

SMILES: CC(C)(C)CC(C)(C)c1ccc(OCCOCC[N+](C)(C)Cc2ccccc2)cc1 [Benzethonium chloride]
- leaves with PD symptoms [2]: ~50%
- progression of PD symptoms [2]: significantly reduced as well as delayed progression of PD symptoms
- phytotoxicity in the chlorophyll degradation assay ([3]; 25 mM): no appreciable phytotoxicity
- visible phytotoxicity (grapevines; foliar sprays): not evident
- visible phytotoxicity (grapevines; soil drench): not evident
- loss in chlorophyll content [4]: increasingly significant loss in chlorophyll content

SMILES: CC(=O)Oc1ccccc1C(=O)Nc1ncc([N+](=O)[O-])s1 [Nitazoxanide]
- inhibition at 25 µM [1]: 100%

SMILES: Cc1cc2c(C(C)C)c(O)c(O)c(C=O)c2c(O)c1-c1c(C)cc2c(C(C)C)c(O)c(O)c(C=O)c2c1O [gossypol]
- inhibition at 50 µM [1]: > 90%

SMILES: CC1=CC(=O)c2ccccc2C1=O [menadione, 2-methyl-1,4-naphthoquinone]
- Las metabolic activity (peroxidase gene expression relative to EF1 alpha) [5]: measureable suppression of Las metabolic activity
- leaves with PD symptoms [2]: ~50%
- progression of PD symptoms [2]: significantly reduced as well as delayed progression of PD symptoms
- control of the progression of PD in field conditions [6]: Effective
- loss in total chlorophyll content ([3]; grapevine leaf discs, within 48 hours, all concentrations tested (as low as 25 mM), vs water-treated control): ~40%
- inhibition at 25 µM [1]: 100%
- inhibition at 50 µM [1]: > 90%
- visible phytotoxicity (grapevines; foliar sprays): sporadic patches of purple pigmentation and necrosis
- visible phytotoxicity (grapevines; soil drench): not evident
- Las metabolic activity (peroxidase gene expression relative to EF1 alpha) [7]: measureable suppression of Las metabolic activity

SMILES: Cc1nccc2c(C)c3[nH]c4ccccc4c3cc12 [olivacine]
- inhibition [1]: 100%

SMILES: Cc1cc2nc3c(=O)[nH]c(=O)nc-3n(C[C@H](O)[C@H](O)[C@H](O)CO)c2cc1N(C)C [roseoflavin]
- inhibition [1]: 100%
